Measured values taken from patent publication US20050209278A1, “Piperidinyl- and piperazinyl-sulfonylmethyl hydroxamic acids and their use as protease inhibitors” (priority 2002, published 2005).

How the values were obtained:
MMP-13 = molecular target: T1, MMP-13 (Homo sapiens, UniProt P45452); experiment: In vitro MMP inhibition, Ki determination (fluorogenic substrate II); type: biochemical; details: value not in parenthesis; read-out: MMP-13 Ki
T1 construct: made in house; host or cells: baculovirus / insect cells
In short: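 Ki determined with human recombinant MMP-13, baculovirus-expressed as proenzyme and activated with APMA. Fluorogenic MCA/Dpa substrate II at 4 μM (at or below Km) with low enzyme in Tris buffer pH 7.5 with CaCl2. Incubation was 1 h at room temperature, with fluorescence read at 330/420 nm.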

MMP-2 = molecular target: T2, MMP-2 (Homo sapiens, UniProt P08253); experiment: as above; type: biochemical; details: value not in parenthesis; read-out: MMP-2 Ki
T2 construct: made in house; host or cells: MMP-2-transfected p2AHT2 cells
T2 sequence (P08253 110-660): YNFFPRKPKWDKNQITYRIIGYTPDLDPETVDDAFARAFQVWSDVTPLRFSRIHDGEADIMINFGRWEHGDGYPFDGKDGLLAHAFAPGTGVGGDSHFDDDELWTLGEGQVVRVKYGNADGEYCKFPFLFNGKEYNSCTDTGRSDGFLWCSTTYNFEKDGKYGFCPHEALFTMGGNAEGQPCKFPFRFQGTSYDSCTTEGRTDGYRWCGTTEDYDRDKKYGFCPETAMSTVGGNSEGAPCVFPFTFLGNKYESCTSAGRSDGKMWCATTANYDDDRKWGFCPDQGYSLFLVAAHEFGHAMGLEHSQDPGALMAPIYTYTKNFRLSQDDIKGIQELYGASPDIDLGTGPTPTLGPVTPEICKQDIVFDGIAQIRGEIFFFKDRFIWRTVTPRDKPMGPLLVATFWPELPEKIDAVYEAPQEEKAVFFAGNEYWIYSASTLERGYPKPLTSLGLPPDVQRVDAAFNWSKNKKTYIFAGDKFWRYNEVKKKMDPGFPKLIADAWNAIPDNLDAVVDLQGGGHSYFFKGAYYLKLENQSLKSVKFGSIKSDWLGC

`CCCCOc1ccc(N2CCN(S(=O)(=O)C3(C(=O)NO)CCN(c4cccc(C)c4)CC3)CC2)cc1` [Example 226] was tested, and the Ki (MMP-13) was 4.38 nM and the Ki (MMP-2) was 10.4 nM.
`COCCSc1ccc(N2CCN(S(=O)(=O)C3(C(=O)NO)CCOCC3)CC2)cc1` [Example 227] showed a Ki (MMP-13) of 1.79 nM and a Ki (MMP-2) of 2.47 nM.
In the case of `CCCCOc1ccc(N2CCN(S(=O)(=O)C3(C(=O)NO)CCN(c4ccc(OC)c(OC)c4)CC3)CC2)cc1` [Example 229], the Ki (MMP-13) is reported as 1.01 nM and the Ki (MMP-2) is reported as 2.67 nM.
`CCCCOc1ccc(N2CCN(S(=O)(=O)C3(C(=O)NO)CCN(C(=O)N4CCN(C)CC4)CC3)CC2)cc1` [Example 230] was tested, and the Ki (MMP-13) was 0.27 nM and the Ki (MMP-2) was 0.46 nM.
`CCCCOc1ccc(N2CCN(S(=O)(=O)C3(C(=O)NO)CCN(C(=O)N4CCCC4)CC3)CC2)cc1` [Example 231] was tested, and the Ki (MMP-13) was 0.17 nM and the Ki (MMP-2) was 1.32 nM.
`CCCCOc1ccc(N2CCN(S(=O)(=O)C3(C(=O)NO)CCSCC3)CC2)cc1` [Example 232] gave a Ki (MMP-13) of 0.56 nM and a Ki (MMP-2) of 26.5 nM.
`CCCCOc1ccc(N2CCN(S(=O)(=O)C3(C(=O)NO)CCN(CCN4CCOCC4)CC3)CC2)cc1` [Example 233] was tested, and the Ki (MMP-13) was 0.26 nM and the Ki (MMP-2) was 0.771 nM.
Work on `CCOCCSc1ccc(N2CCN(S(=O)(=O)C3(C(=O)NO)CCOCC3)CC2)cc1` [Example 234] yielded a Ki (MMP-13) of 1.61 nM and a Ki (MMP-2) of 3.16 nM.
For `CCCCOc1ccc(N2CCN(S(=O)(=O)C3(C(=O)NO)CCN(CCN(CC)CC)CC3)CC2)cc1` [Example 235], the Ki (MMP-13) was 0.3 nM and the Ki (MMP-2) was 0.76 nM.
`CCCCCc1ccc(N2CCN(S(=O)(=O)C3(C(=O)NO)CCN(S(=O)(=O)N(C)C)CC3)CC2)cc1` [Example 236] was tested, and the Ki (MMP-13) was 1.47 nM and the Ki (MMP-2) was 2.58 nM.
Compound `CCCCCc1ccc(N2CCN(S(=O)(=O)C3(C(=O)NO)CCN(S(C)(=O)=O)CC3)CC2)cc1` [Example 237] has a Ki (MMP-13) of 1.69 nM and a Ki (MMP-2) of 2.03 nM.
`CCCCOc1ccc(N2CCN(S(=O)(=O)C3(C(=O)NO)CCN(CCCC(F)(F)F)CC3)CC2)cc1` [Example 238] showed a Ki (MMP-13) of 0.53 nM and a Ki (MMP-2) of 1.63 nM.
Work on `CCCCCc1ccc(N2CCN(S(=O)(=O)C3(C(=O)NO)CCN(C(C)=O)CC3)CC2)cc1` [Example 239] yielded a Ki (MMP-13) of 0.37 nM and a Ki (MMP-2) of 0.54 nM.
`CCCCOc1ccc(N2CCN(S(=O)(=O)C3(C(=O)NO)CCN(C(=O)NC(C)(C)C)CC3)CC2)cc1` [Example 240] gave a Ki (MMP-13) of 0.327 nM and a Ki (MMP-2) of 0.536 nM.
In the case of `CCCCOc1ccc(N2CCN(S(=O)(=O)C3(C(=O)NO)CCN(c4ccc(N(C)C)cc4)CC3)CC2)cc1` [Example 241], the Ki (MMP-13) is reported as 1.06 nM and the Ki (MMP-2) is reported as 3.64 nM.
In the case of `CCCCOc1ccc(N2CCN(S(=O)(=O)C3(C(=O)NO)CCN(C(=O)N(CC)CC)CC3)CC2)cc1` [Example 242], the Ki (MMP-13) is reported as 0.331 nM and the Ki (MMP-2) is reported as 0.591 nM.
For `CCCCOc1ccc(N2CCN(S(=O)(=O)C3(C(=O)NO)CCN(C(=O)N4CCCCC4)CC3)CC2)cc1` [Example 243], the Ki (MMP-13) was 0.24 nM and the Ki (MMP-2) was 0.34 nM.
`CCCCOc1ccc(N2CCN(S(=O)(=O)C3(C(=O)NO)CCN(C(=O)N(C(C)C)C(C)C)CC3)CC2)cc1` [Example 244] showed a Ki (MMP-13) of 0.57 nM and a Ki (MMP-2) of 1.57 nM.
`CCCCOc1ccc(N2CCN(S(=O)(=O)C3(C(=O)NO)CCN(Cc4nccn4C)CC3)CC2)cc1` [Example 245] was tested, and the Ki (MMP-13) was 0.177 nM and the Ki (MMP-2) was 0.475 nM.
In the case of `CCCCOc1ccc(N2CCN(S(=O)(=O)C3(C(=O)NO)CCN(Cc4ccc(C)o4)CC3)CC2)cc1` [Example 246], the Ki (MMP-13) is reported as 0.396 nM and the Ki (MMP-2) is reported as 1.2 nM.
`CCCCOc1ccc(N2CCN(S(=O)(=O)C3(C(=O)NO)CCN(Cc4ncc[nH]4)CC3)CC2)cc1` [Example 247] showed a Ki (MMP-13) of 0.166 nM and a Ki (MMP-2) of 0.686 nM.
In the case of `CCCCOc1ccc(N2CCN(S(=O)(=O)C3(C(=O)NO)CCN(c4ccc(OC)cc4)CC3)CC2)cc1` [Example 249], the Ki (MMP-13) is reported as 2.46 nM and the Ki (MMP-2) is reported as 4.98 nM.
